Starred links: 1 amine or outer side, 2 acyl side, 3 side chain; linkers in the order of their positions; H or OH if unused. Non-standard residues stand in square brackets, D forms with d. Residues, ends and D or L forms follow the SMILES beside them. *: point of attachment. Gly(N-(3-decanoyloxypropyl)) = CCCCCCCCCC(=O)OCCCNCC(=O)O; N(3-lauroyloxypropyl)Gly = CCCCCCCCCCCC(=O)OCCCNCC(=O)O; N(3-imidazol-1-ylpropyl)Gly = O=C(O)CNCCCn1ccnc1; Gly(N-3-morpholinopropyl) = O=C(O)CNCCCN1CCOCC1; N(2-ethylhexyl)Gly = CCCCC(CC)CNCC(=O)O; X2 = CCCCCCC(CCCC)CN(CC(=O)[*:2])[*:1]; N(CH(CH2OH)2)Gly = O=C(O)CNC(CO)CO; N(octyl)Gly = CCCCCCCCNCC(=O)O; NDecylGly = CCCCCCCCCCNCC(=O)O; NHexGly = CCCCCCNCC(=O)O; For = O=C*
Legend:
mRNA = mRNA encapsulation (modified Quant-iT RiboGreen assay); assay type: physicochemical; conditions: for mean percent encapsulation of RNA: RiboGreen, without vs with Triton X-100; for % Encapsulation: mRNA
Outline: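 Encapsulated fraction was calculated by comparing RiboGreen signal (excitation 485 nm, emission 530 nm) of intact particles with that of particles lysed by a 10-min Triton X-100 treatment. Total mRNA concentration was taken from the lysed samples.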

firefly luciferase = experiment: In vivo firefly luciferase expression after intravenous injection of fLuc mRNA delivery vehicles (IVIS imaging); parameters: species or system female Balb/c mice; conditions: for Total Flux (luciferase expression): fLuc mRNA, intravenous, Balb/c mice; for Total Flux: mice, 2.5 ug fLuc mRNA intravenously, 6 hours post-injection
Outline: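 Read-out is total photon flux per region of interest, from whole-body IVIS images taken 10 minutes after IP D-luciferin (30 mg/mL, 10 μL/g) and from excised organs. Female Balb/c mice aged 6-8 weeks received 2.5 ug fLuc mRNA Nutshells intravenously 6 hours before imaging.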

luciferase = experiment: Luciferase expression after local (intramuscular or subcutaneous) administration of mRNA; assay type: in vivo; conditions: mRNA 0.01 mpk, 6 hours; for IM Flux: intramuscular; for SC Flux: subcutaneous
Outline: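 Bioluminescence read 6 hours after fLuc mRNA dosing (peptoid Nutshells; 0.01 mpk S.C. or I.M., 0.1 mpk intratumoral) in female Balb/c mice aged 6-8 weeks. D-luciferin injected IP, whole-body imaging after 10 minutes, then organ imaging; total photon flux per region of interest.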

[1] = Delivery vehicle size and polydispersity by dynamic light scattering; assay type: physicochemical
Outline: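 Dynamic light scattering in PBS gave size and polydispersity of peptoid LNPs. These were dialyzed overnight at 4 °C into tris-sucrose buffer pH 7.4 after microfluidic 1:3 volume mixing of mRNA in pH 5.0 citrate with ethanol lipids (peptoid:DSPC:cholesterol:DMG-PEG2000 20:1.79:7.16:1.84 w/w).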

hEPO = experiment: Quantification of hEPO in serum after IV injection of mRNA (Human EPO ELISA); assay type: in vivo; conditions: Balb/c mice, 2.5 μg mRNA IV, serum after 6 hours
Outline: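 Balb/c mice received 2.5 μg mRNA encoding human EPO by IV injection; serum was collected after 6 hours. hEPO was measured by sandwich ELISA (biotin-conjugate, streptavidin-HRP, TMB, A450) against kit standards (mIU/mL) and an external standard (ng/mL), with values interpolated and corrected for dilution.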

[2] = Peptoid quantity remaining in liver by HPLC-TOF mass spectrometry; assay type: in vivo; conditions: liver homogenate
Method: Peptoid quantity in liver was determined via high-performance liquid chromatography coupled with time-of-flight mass spectrometer (HPLC-TOF). The entire liver was weighed, and then two sections were isolated using a provided biopsy punch for liver homogenization. Liver homogenate sample was prepared by resuspending 20 mg liver tissue in 400 μL extraction solvent (IPA/MeOH=8/2) containing an internal standard (400 pg/μL) followed by bead homogenization (45 sec per cycle for 3-4 cycles). Homogenized samples were centrifuged at 12,000 rpm for 8 min at 6 °C. The resulting supernatant was collected and stored at −20 °C for further LC analysis. 5 μL of the resulting supernatant sample from solid or liquid tissue was injected into a BEH C8 column on an Agilent 1290 Infinity II liquid chromatograph coupled with an Agilent 6230 LC-TOF system. Concentrations of peptoids were determined by a linear calibration curve (linear range:0.2-50 μg/g for solid tissue). Standard calibration curve solutions were prepared by spiking untreated liver followed by homogenization and centrifugation.

[3] = DLS in PBS, peptoid:DSPC:Cholesterol:DMG-PEG2000 weight ratio 20:1.79:7.16:1.84, mRNA

Row | mean percent encapsulation of RNA (mRNA) [%] | % Encapsulation (mRNA; formulation recipe D22) [%] | % Encapsulation (mRNA; formulation recipe O5) [%] | % Encapsulation (mRNA; formulation recipe O8) [%] | PDI [1, 3] | Particle Size [1, 3] [nm] | Particle Size ([1]; formulation recipe D22) [nm] | Particle Size ([1]; formulation recipe O5) [nm] | Particle Size ([1]; formulation recipe O8) [nm] | % of injected dose remaining in liver [2] | SMILES | Total Flux (luciferase expression) (firefly luciferase; formulation recipe D22) [p/s] | Total Flux (luciferase expression) (firefly luciferase; formulation recipe O5) [p/s] | Total Flux (luciferase expression) (firefly luciferase; formulation recipe O8) [p/s] | Total Flux (firefly luciferase) [p/s] | IM Flux (luciferase) [p/s] | SC Flux (luciferase) [p/s] | hEPO (hEPO) [ng/mL]
1 | 78.1 | 78.1 | 92.8 | 92.9 | 0.159 | 70.4 | 70.4 | 56.3 | 57.5 | −1.37% | CCCCCCCCCCN(CC(=O)N(CC(=O)N(CCCOC(=O)CCCCCCCCC)CC(N)=O)CC(CC)CCCC)C(=O)CN(CC(CC)CCCC)C(=O)CN(CCCOC(=O)CCCCCCCCC)C(=O)CN(CC(CC)CCCC)C(=O)CNC(CO)CO (stereo not shown) [Compound 58] (H-[N(CH(CH2OH)2)Gly][N(2-ethylhexyl)Gly][Gly(N-(3-decanoyloxypropyl))][N(2-ethylhexyl)Gly][NDecylGly][N(2-ethylhexyl)Gly][Gly(N-(3-decanoyloxypropyl))]-NH2) | 3.94E+09 | 5.84E+08 | 1.02E+09 | 3.94E+09 | 5.53E+08 | 1.99E+07 | 386
2 | 95.2 | – | – | – | 0.106 | 79.5 | – | – | – | −1.85% | CCCCCCCCCCCC(=O)OCCCN(CC(N)=O)C(=O)CN(CC(CC)CCCC)C(=O)CN(CCCCCCCCCC)C(=O)CN(CC(CC)CCCC)C(=O)CN(CCCOC(=O)CCCCCCCCCCC)C(=O)CN(CC(CC)CCCC)C(=O)CNC(CO)CO (stereo not shown) [Compound 59] (H-[N(CH(CH2OH)2)Gly][N(2-ethylhexyl)Gly][N(3-lauroyloxypropyl)Gly][N(2-ethylhexyl)Gly][NDecylGly][N(2-ethylhexyl)Gly][N(3-lauroyloxypropyl)Gly]-NH2) | – | – | – | 6.47E+08 | 6.35E+07 | 8.71E+08 | 112
3 | 95.1 | – | – | – | 0.081 | 75.4 | – | – | – | 13.39% | CCCCCCCCCC(=O)OCCCN(CC(=O)N(CC(=O)N(CC(=O)N(CCCOC(=O)CCCCCCCCC)CC(=O)N(CC(N)=O)CC(CCCC)CCCCCC)CC(CC)CCCC)CC(CCCC)CCCCCC)C(=O)CN(CC(CC)CCCC)C(=O)CNC(CO)CO (stereo not shown) [Compound 61] (H-[N(CH(CH2OH)2)Gly][N(2-ethylhexyl)Gly][Gly(N-(3-decanoyloxypropyl))][X2][N(2-ethylhexyl)Gly][Gly(N-(3-decanoyloxypropyl))][X2]-NH2) | – | – | – | 1.96E+09 | 1.45E+08 | 1.99E+08 | 428
4 | 67.3 | – | – | – | 0.096 | 77.8 | – | – | – | 5.30% | CCCCCCCCCCCC(=O)OCCCN(CC(=O)N(CC(=O)N(CC(=O)N(CCCOC(=O)CCCCCCCCCCC)CC(=O)N(CC(N)=O)CC(CC)CCCC)CC(CC)CCCC)CC(CC)CCCC)C(=O)CN(CC(CC)CCCC)C(=O)CN(C=O)CCCN1CCOCC1 (stereo not shown) [Compound 64] (For-[Gly(N-3-morpholinopropyl)][N(2-ethylhexyl)Gly][N(3-lauroyloxypropyl)Gly][N(2-ethylhexyl)Gly][N(2-ethylhexyl)Gly][N(3-lauroyloxypropyl)Gly][N(2-ethylhexyl)Gly]-NH2) | – | – | – | 6.54E+08 | 1.42E+08 | 1.33E+08 | 87
5 | 39.1 | – | – | – | 0.248 | 91.4 | – | – | – | 14.67% | CCCCCCCCCCCC(=O)OCCN(CC(=O)N(CCOC(=O)CCCCCCCCCCC)CC(=O)N(CC(=O)N(CCOC(=O)CCCCCCCCCCC)CC(=O)N(CCOC(=O)CCCCCCCCCCC)CC(=O)N(CC(N)=O)CC(CC)CCCC)CC(CC)CCCC)C(=O)CN(C=O)CCCN1CCOCC1 (stereo not shown) [Compound 65] | – | – | – | 8.68E+08 | 8.99E+08 | 2.00E+08 | 77.7
6 | 77.2 | – | – | – | 0.082 | 101.3 | – | – | – | 8.06% | CCCCCCCCCCCC(=O)OCCCN(CC(=O)N(CC(=O)N(CCCCCC)CC(=O)N(CCCOC(=O)CCCCCCCCCCC)CC(=O)N(CC(=O)N(CCCCCC)CC(N)=O)CC(CC)CCCC)CC(CC)CCCC)C(=O)CN(C=O)CCCN1CCOCC1 (stereo not shown) [Compound 70] (For-[Gly(N-3-morpholinopropyl)][N(3-lauroyloxypropyl)Gly][N(2-ethylhexyl)Gly][NHexGly][N(3-lauroyloxypropyl)Gly][N(2-ethylhexyl)Gly][NHexGly]-NH2) | – | – | – | 1.04E+09 | 4.46E+06 | 2.02E+08 | 201
7 | 89.2 | – | – | – | 0.139 | 106.8 | – | – | – | 11.32% | CCCCCCCCCCCC(=O)OCCCN(CC(=O)N(CC(=O)N(CCCCCC)CC(=O)N(CCCOC(=O)CCCCCCCCCCC)CC(=O)N(CC(=O)N(CCCCCC)CC(N)=O)CC(CC)CCCC)CC(CC)CCCC)C(=O)CNCCCn1ccnc1 (stereo not shown) [Compound 72] (H-[N(3-imidazol-1-ylpropyl)Gly][N(3-lauroyloxypropyl)Gly][N(2-ethylhexyl)Gly][NHexGly][N(3-lauroyloxypropyl)Gly][N(2-ethylhexyl)Gly][NHexGly]-NH2) | – | – | – | 1.71E+08 | 9.25E+06 | 3.73E+07 | 36
8 | 67.6 | 67.6 | 90.4 | 91.5 | 0.151 | 87.1 | 87.1 | 70.1 | 71.7 | bdl | CCCCCCCCCCCC(=O)OCCCN(CC(=O)N(CC(N)=O)CC(CC)CCCC)C(=O)CN(CCCCCCCC)C(=O)CN(CC(CC)CCCC)C(=O)CN(CCCOC(=O)CCCCCCCCCCC)C(=O)CN(CCCCCCCC)C(=O)CN(C=O)CCCN1CCOCC1 (stereo not shown) [Compound 74] (For-[Gly(N-3-morpholinopropyl)][N(octyl)Gly][N(3-lauroyloxypropyl)Gly][N(2-ethylhexyl)Gly][N(octyl)Gly][N(3-lauroyloxypropyl)Gly][N(2-ethylhexyl)Gly]-NH2) | 1.96E+09 | 1.92E+09 | 3.39E+09 | 1.96E+09 | 4.87E+07 | 2.11E+08 | 354

From patent US20260373248A1, “DEGRADABLE PEPTOIDS” (Medici Therapeutics, Inc., priority 2023, published 2026)
